Broadly, the Ki is the dissociation constant of the complex between target and ligand, obtained from inhibition or displacement. Low values mean a stronger hold on the target, high ones a looser hold on the target.

Results on five compounds are retold here after ChEMBL document CHEMBL1143538 (Bioorg Med Chem Lett, 2005).

Common to all, as to type: cell-based
For experiment [1], the target named is Kappa-type opioid receptor (Homo sapiens, UniProt P41145). Nature of the experiment: Binding affinity against Opioid receptor kappa 1 expressed in CHO cells using [3H]U-69593 as radioligand.
A further experiment concerns the target Mu-type opioid receptor (Homo sapiens, UniProt P35372). Nature of the experiment: Binding affinity against Opioid receptor mu 1 expressed in CHO cells using [3H]DAMGO as radioligand.
For experiment [2], the target named is Delta-type opioid receptor (Homo sapiens, UniProt P41143). Nature of the experiment: Binding affinity against Opioid receptor delta 1 expressed in CHO cells using [3H]Naltrindole as radioligand.
Chain of Delta-type opioid receptor (P41143 whole entry): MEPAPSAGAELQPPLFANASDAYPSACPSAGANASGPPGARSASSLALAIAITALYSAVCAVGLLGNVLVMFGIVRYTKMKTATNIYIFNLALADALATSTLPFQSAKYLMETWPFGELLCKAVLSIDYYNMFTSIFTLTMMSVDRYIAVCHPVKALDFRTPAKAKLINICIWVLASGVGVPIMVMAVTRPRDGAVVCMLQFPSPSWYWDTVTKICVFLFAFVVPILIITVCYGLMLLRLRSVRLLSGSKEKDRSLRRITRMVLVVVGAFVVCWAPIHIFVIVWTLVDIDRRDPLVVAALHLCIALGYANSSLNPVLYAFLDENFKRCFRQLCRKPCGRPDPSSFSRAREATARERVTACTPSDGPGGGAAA

Chain of Kappa-type opioid receptor (P41145 whole entry): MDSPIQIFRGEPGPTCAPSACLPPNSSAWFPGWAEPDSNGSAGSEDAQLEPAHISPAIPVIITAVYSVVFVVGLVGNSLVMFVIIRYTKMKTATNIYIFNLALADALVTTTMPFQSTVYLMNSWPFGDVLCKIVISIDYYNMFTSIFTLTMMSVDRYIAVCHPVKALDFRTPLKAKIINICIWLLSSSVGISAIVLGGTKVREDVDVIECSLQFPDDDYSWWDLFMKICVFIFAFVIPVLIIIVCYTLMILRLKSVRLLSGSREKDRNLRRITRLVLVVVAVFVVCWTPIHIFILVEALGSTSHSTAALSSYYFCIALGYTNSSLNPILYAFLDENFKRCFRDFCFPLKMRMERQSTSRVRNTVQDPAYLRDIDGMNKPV
Chain of Mu-type opioid receptor (P35372 whole entry): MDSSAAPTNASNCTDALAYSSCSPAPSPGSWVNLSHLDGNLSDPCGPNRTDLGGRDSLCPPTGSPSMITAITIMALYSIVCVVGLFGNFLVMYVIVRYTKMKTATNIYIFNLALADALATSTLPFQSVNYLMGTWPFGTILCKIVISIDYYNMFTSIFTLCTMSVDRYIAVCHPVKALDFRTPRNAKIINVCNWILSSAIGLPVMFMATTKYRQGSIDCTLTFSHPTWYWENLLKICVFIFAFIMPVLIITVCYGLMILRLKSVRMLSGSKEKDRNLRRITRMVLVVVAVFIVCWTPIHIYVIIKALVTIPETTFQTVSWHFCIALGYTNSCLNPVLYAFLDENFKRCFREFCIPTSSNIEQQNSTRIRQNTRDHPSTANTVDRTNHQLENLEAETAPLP

For `COc1c(C(N)=O)ccc2c1[C@]13CCN(CC4CC4)[C@H](C2)[C@]1(O)CCC(=O)C3`, the Ki turned out to be 23 nM in experiment [1], 11 nM on Mu-type opioid receptor and 480 nM in experiment [2].

For the compound `NC(=O)c1ccc2c(c1O)[C@]13CCN(CC4CC4)[C@H](C2)[C@]1(O)CCC(=O)C3` [SAMIDORPHAN], the Ki in experiment [1] came out at 0.23 nM; on Mu-type opioid receptor, 0.052 nM; in experiment [2], 2.6 nM.

Regarding `O=C1CC[C@@]2(O)[C@H]3Cc4ccc(O)c(O)c4[C@@]2(CCN3CC2CC2)C1`, the Ki in experiment [1] stood at 2.2 nM; on Mu-type opioid receptor, 17 nM; in experiment [2] it was 130 nM.

On to `NC(=O)c1ccc2c3c1O[C@H]1C(=O)CC[C@@]4(O)[C@@H](C2)N(CC2CC2)CC[C@]314`, for which the results for the Ki (in experiment [1]; at Mu-type opioid receptor; in experiment [2]) were 11 nM, 0.71 nM and 550 nM, respectively.

As to `NC(=O)c1ccc2c(c1O)[C@]13CCN(CC4CCC4)[C@H](C2)[C@]1(O)CCC(=O)C3`, the Ki is 0.27 nM in experiment [1] and 4.2 nM in experiment [2].
